Assay results reported in PMC11247487, “Discovery of Dual MER/AXL Kinase Inhibitors as Bifunctional Small Molecules for Inhibiting Tumor Growth and Enhancing Tumor Immune Microenvironment” (Journal of Medicinal Chemistry, 2024).

Key:
MER = target: T1, MER (Homo sapiens, UniProt Q12866); assay: MER enzyme inhibition assay (in-house Kinase-Glo); type: biochemical
T1 construct: A purified kinase (MER or AXL) was incubated with a compound or DMSO
T1 sequence (Q12866 21-999): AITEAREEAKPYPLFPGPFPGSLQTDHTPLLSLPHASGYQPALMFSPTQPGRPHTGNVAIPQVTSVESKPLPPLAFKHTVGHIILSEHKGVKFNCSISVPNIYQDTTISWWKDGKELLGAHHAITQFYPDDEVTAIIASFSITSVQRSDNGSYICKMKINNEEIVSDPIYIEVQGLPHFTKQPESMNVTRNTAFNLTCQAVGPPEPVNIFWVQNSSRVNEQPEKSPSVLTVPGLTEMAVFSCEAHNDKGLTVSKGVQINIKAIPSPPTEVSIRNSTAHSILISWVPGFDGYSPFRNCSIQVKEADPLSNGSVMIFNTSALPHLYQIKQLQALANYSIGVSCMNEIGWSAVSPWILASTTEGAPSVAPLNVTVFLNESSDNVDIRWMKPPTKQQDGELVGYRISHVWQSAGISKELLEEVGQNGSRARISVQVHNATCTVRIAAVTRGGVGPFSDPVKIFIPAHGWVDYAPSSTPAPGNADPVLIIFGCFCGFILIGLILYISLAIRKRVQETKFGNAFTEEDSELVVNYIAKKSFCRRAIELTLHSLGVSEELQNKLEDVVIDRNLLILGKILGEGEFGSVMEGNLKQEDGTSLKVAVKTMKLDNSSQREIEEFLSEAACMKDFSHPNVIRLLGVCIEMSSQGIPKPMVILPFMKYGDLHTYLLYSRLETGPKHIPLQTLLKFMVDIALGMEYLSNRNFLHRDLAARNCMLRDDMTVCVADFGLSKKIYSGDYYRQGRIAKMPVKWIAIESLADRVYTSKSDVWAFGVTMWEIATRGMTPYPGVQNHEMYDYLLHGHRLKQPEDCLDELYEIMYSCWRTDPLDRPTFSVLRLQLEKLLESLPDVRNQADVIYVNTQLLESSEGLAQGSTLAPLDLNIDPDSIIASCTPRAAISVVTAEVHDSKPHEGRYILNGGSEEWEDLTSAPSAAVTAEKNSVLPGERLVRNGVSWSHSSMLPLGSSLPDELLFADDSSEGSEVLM

AXL = target: T2, AXL (Homo sapiens, UniProt P30530); assay: AXL enzyme inhibition assay (ADP-Glo); type: biochemical
T2 construct: A purified kinase (MER or AXL) was incubated with a compound or DMSO
T2 sequence (P30530 26-894): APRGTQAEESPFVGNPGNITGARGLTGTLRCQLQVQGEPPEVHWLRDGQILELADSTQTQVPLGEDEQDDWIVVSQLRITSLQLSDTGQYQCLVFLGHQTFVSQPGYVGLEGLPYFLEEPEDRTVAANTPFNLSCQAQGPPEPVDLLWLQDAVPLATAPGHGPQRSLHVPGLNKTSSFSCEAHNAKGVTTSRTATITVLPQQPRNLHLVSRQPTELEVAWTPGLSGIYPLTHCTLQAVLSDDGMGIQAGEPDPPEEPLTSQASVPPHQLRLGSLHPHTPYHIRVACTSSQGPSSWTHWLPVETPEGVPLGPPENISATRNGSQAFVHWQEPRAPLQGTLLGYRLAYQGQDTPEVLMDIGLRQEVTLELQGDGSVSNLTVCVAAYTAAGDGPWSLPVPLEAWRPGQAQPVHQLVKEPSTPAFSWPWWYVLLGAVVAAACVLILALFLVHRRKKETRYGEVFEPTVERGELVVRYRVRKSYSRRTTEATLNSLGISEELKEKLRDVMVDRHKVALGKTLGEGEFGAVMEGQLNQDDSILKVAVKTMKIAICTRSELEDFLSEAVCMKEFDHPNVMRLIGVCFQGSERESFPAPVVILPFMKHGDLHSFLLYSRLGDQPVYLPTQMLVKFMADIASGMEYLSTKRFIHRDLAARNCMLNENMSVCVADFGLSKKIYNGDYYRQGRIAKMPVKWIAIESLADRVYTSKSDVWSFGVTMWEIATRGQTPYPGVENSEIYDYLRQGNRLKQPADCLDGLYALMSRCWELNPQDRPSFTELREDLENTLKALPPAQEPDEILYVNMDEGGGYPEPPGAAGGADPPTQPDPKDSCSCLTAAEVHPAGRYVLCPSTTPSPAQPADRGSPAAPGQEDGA

EGFR^WT = EGFR^WT (Homo sapiens, UniProt P00533); assay: EGFR^WT in-house Kinase-Glo assay; type: biochemical; details: read-out: EGFR^WT inh. @ 1 μM
EGFR^DM (T790M/L858R) = EGFR^DM (T790M/L858R) (Homo sapiens, UniProt P00533, L858R/T790M); assay: EGFR^DM in-house Kinase-Glo assay; type: biochemical; details: cell marked b = IC50 value
Ba/F3-MER cells = assay: Cell viability assay (MTS); type: cell-based; details: 72 h

Sequence of EGFR^WT (P00533 25-1210): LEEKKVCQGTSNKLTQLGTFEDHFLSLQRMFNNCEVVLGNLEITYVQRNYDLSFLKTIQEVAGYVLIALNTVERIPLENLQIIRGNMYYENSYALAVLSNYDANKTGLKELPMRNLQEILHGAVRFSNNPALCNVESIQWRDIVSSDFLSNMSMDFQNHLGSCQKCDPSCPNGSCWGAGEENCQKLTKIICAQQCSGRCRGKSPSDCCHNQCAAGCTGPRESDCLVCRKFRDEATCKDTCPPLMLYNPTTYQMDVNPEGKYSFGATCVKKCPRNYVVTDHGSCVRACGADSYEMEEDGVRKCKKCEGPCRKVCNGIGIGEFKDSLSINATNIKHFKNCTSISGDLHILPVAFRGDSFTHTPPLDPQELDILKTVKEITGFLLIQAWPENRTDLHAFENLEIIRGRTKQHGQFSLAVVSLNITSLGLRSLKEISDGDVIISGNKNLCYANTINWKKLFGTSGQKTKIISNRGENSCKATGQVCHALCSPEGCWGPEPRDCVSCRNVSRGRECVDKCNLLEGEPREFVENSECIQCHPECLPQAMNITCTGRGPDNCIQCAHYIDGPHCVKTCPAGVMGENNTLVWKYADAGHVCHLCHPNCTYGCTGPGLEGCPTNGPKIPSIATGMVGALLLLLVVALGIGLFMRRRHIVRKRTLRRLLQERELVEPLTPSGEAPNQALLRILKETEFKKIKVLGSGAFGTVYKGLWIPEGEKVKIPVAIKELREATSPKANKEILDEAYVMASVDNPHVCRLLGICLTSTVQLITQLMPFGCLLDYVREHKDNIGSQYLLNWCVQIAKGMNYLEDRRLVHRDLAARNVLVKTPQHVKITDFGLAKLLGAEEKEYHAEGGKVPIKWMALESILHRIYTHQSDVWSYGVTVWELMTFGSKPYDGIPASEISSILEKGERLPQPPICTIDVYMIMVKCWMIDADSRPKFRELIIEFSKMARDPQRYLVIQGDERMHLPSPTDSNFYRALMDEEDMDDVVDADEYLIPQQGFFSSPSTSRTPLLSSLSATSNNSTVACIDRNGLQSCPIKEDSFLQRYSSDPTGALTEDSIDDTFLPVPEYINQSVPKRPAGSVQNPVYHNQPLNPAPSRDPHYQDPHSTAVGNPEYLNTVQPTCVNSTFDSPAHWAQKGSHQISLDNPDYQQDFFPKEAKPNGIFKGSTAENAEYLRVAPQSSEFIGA
Sequence of EGFR^DM (T790M/L858R) (P00533 25-1210 T790M/L858R): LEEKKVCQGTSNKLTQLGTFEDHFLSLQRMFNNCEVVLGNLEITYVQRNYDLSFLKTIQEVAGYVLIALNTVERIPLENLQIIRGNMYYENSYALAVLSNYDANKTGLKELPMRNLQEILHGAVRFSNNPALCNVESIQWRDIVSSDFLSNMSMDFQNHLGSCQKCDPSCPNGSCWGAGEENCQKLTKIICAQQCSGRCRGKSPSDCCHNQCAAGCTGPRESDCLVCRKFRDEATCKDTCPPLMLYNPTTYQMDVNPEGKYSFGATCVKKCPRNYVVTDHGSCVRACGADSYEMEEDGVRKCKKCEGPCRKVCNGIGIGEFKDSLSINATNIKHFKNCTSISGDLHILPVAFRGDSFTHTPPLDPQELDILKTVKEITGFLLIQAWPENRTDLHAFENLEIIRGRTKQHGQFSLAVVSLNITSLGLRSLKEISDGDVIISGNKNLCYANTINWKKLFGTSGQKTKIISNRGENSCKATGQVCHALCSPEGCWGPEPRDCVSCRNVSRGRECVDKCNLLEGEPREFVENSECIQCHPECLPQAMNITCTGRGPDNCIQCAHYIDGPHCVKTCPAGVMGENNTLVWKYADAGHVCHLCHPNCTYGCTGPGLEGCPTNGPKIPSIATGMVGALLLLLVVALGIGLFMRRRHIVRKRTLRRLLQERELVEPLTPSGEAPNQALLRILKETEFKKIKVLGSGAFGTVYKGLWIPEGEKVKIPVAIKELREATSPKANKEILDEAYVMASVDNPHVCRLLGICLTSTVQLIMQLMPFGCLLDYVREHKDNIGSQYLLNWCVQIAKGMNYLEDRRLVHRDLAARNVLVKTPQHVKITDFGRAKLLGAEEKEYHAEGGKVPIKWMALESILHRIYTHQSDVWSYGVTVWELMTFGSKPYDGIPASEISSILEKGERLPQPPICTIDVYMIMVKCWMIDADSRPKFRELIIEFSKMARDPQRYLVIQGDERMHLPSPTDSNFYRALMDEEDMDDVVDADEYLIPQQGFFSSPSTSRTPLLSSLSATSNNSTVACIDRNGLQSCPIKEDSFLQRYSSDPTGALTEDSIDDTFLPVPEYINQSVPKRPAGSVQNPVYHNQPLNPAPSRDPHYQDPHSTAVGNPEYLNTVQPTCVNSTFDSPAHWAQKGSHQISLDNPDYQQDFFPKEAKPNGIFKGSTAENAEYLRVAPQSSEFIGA

IC50 (Ba/F3-MER cells)	Compound	other results
211 nM	Cc1oc2ncnc(Oc3ccc(NC(=O)c4cccn(-c5ccc(F)cc5)c4=O)cc3)c2c1-c1cccc(N)c1 [Compound 20, N-(4-{[5-(3-Aminophenyl)-6-methylfuro[2,3-d]pyrimidin-4-yl]oxy}phenyl)-1-(4-fluorophenyl)-2-oxo-1,2-dihydropyridine-3-carboxamide]	–
10.6 nM	Nc1cccc(-c2c(-c3cn[nH]c3)oc3ncnc(Oc4ccc(NC(=O)c5cccn(-c6ccc(F)cc6)c5=O)cc4)c23)c1 [Compound 21, N-(4-{[5-(3-Aminophenyl)-6-(1H-pyrazol-4-yl)furo[2,3-d]pyrimidin-4-yl]oxy}phenyl)-1-(4-fluorophenyl)-2-oxo-1,2-dihydropyridine-3-carboxamide]	–
77.1 nM	Nc1cccc(-c2c(-c3cc[nH]n3)oc3ncnc(Oc4ccc(NC(=O)c5cccn(-c6ccc(F)cc6)c5=O)cc4)c23)c1 [Compound 25, N-(4-{[5-(3-Aminophenyl)-6-(1H-pyrazol-3-yl)furo[2,3-d]pyrimidin-4-yl]oxy}phenyl)-1-(4-fluorophenyl)-2-oxo-1,2-dihydropyridine-3-carboxamide]	–
4.5 nM	Nc1cccc(-c2c(-c3ccsc3)oc3ncnc(Oc4ccc(NC(=O)c5cccn(-c6ccc(F)cc6)c5=O)cc4)c23)c1 [Compound 26, N-(4-{[5-(3-Aminophenyl)-6-(thiophen-3-yl)furo[2,3-d]pyrimidin-4-yl]oxy}phenyl)-1-(4-fluorophenyl)-2-oxo-1,2-dihydropyridine-3-carboxamide]	–
172 nM	Cn1cc(-c2cc3c(Oc4ccc(NC(=O)c5cccn(-c6ccc(F)cc6)c5=O)cc4)ncnc3o2)cn1 [Compound 27, 1-(4-Fluorophenyl)-N-(4-{[6-(1-methyl-1H-pyrazol-4-yl)furo[2,3-d]pyrimidin-4-yl]oxy}phenyl)-2-oxo-1,2-dihydropyridine-3-carboxamide]	–
13.4 nM	CN(C)c1cccc(-c2c(-c3cnn(C)c3)oc3ncnc(Oc4ccc(NC(=O)c5cccn(-c6ccc(F)cc6)c5=O)cc4)c23)c1 [Compound 30, N-[4-({5-[3-(Dimethylamino)phenyl]-6-(1-methyl-1H-pyrazol-4-yl)furo[2,3-d]pyrimidin-4-yl}oxy)phenyl]-1-(4-fluorophenyl)-2-oxo-1,2-dihydropyridine-3-carboxamide]	–
5 nM	CNCc1cccc(-c2c(-c3cnn(C)c3)oc3ncnc(Oc4ccc(NC(=O)c5cccn(-c6ccc(F)cc6)c5=O)cc4)c23)c1 [Compound 32, 1-(4-Fluorophenyl)-N-{4-[(5-{3-[(methylamino)methyl]phenyl}-6-(1-methyl-1H-pyrazol-4-yl)furo[2,3-d]pyrimidin-4-yl)oxy]phenyl}-2-oxo-1,2-dihydropyridine-3-carboxamide]	–
2.1 nM	Cn1cc(-c2oc3ncnc(Oc4ccc(NC(=O)c5cccn(-c6ccc(F)cc6)c5=O)cc4)c3c2-c2ccccc2N)cn1 [Compound 36, N-(4-{[5-(2-Aminophenyl)-6-(1-methyl-1H-pyrazol-4-yl)furo[2,3-d]pyrimidin-4-yl]oxy}phenyl)-1-(4-fluorophenyl)-2-oxo-1,2-dihydropyridine-3-carboxamide]	–
0.4 nM	CC(=O)Nc1ccc(-c2c(-c3cnn(C)c3)oc3ncnc(Oc4ccc(NC(=O)c5cccn(-c6ccc(F)cc6)c5=O)cc4)c23)cc1 [Compound 38, N-[4-({5-[4-(Acetylamino)phenyl]-6-(1-methyl-1H-pyrazol-4-yl)furo[2,3-d]pyrimidin-4-yl}oxy)phenyl]-1-(4-fluorophenyl)-2-oxo-1,2-dihydropyridine-3-carboxamide]	–

The remaining lines, values behind:

Compound	IC50 (Ba/F3-MER cells)	other results
C=CC(=O)Nc1cccc(-c2c(-c3ccccc3)oc3ncnc(Oc4ccc(NC(=O)C5(C(=O)Nc6ccc(F)cc6)CC5)cc4)c23)c1 [Compound 11]	618 nM	inhibition at 1 µM (MER; read-out: MER inh. @ 1 μM): 14%; inhibition at 1 µM (AXL; read-out: AXL inh. @ 1 μM): 96%; inhibition at 1 µM (EGFR^WT): 40%; IC50 (EGFR^DM (T790M/L858R)): 42 nM
Nc1cccc(-c2coc3ncnc(Oc4ccc(NC(=O)c5cccn(-c6ccc(F)cc6)c5=O)cc4)c23)c1 [Compound 18, N-(4-{[5-(3-Aminophenyl)furo[2,3-d]pyrimidin-4-yl]oxy}phenyl)-1-(4-fluorophenyl)-2-oxo-1,2-dihydropyridine-3-carboxamide]	910 nM	–
Nc1cccc(-c2c(Br)oc3ncnc(Oc4ccc(NC(=O)c5cccn(-c6ccc(F)cc6)c5=O)cc4)c23)c1 [Compound 19, N-(4-{[5-(3-Aminophenyl)-6-bromofuro[2,3-d]pyrimidin-4-yl]oxy}phenyl)-1-(4-fluorophenyl)-2-oxo-1,2-dihydropyridine-3-carboxamide]	428 nM	–
Cc1nn(C)cc1-c1oc2ncnc(Oc3ccc(NC(=O)c4cccn(-c5ccc(F)cc5)c4=O)cc3)c2c1-c1cccc(N)c1 [Compound 23, N-(4-{[5-(3-Aminophenyl)-6-(1,3-dimethyl-1H-pyrazol-4-yl)furo[2,3-d]pyrimidin-4-yl]oxy}phenyl)-1-(4-fluorophenyl)-2-oxo-1,2-dihydropyridine-3-carboxamide]	5.9 nM	–
Cc1noc(C)c1-c1oc2ncnc(Oc3ccc(NC(=O)c4cccn(-c5ccc(F)cc5)c4=O)cc3)c2c1-c1cccc(N)c1 [Compound 24, N-(4-{[5-(3-Aminophenyl)-6-(3,5-dimethyl-1,2-oxazol-4-yl)furo[2,3-d]pyrimidin-4-yl]oxy}phenyl)-1-(4-fluorophenyl)-2-oxo-1,2-dihydropyridine-3-carboxamide]	1050 nM	–
Cn1cc(-c2oc3ncnc(Oc4ccc(NC(=O)c5cccn(-c6ccc(F)cc6)c5=O)cc4)c3c2-c2ccc(N)cc2)cn1 [Compound 37, N-(4-{[5-(4-Aminophenyl)-6-(1-methyl-1H-pyrazol-4-yl)furo[2,3-d]pyrimidin-4-yl]oxy}phenyl)-1-(4-fluorophenyl)-2-oxo-1,2-dihydropyridine-3-carboxamide]	1.2 nM	–
Cn1cc(-c2oc3ncnc(Oc4ccc(NC(=O)c5cccn(-c6ccc(F)cc6)c5=O)cc4)c3c2-c2ccc(N3CCNCC3)cc2)cn1 [Compound 40, 1-(4-Fluorophenyl)-N-[4-({6-(1-methyl-1H-pyrazol-4-yl)-5-[4-(piperazin-1-yl)phenyl]furo[2,3-d]pyrimidin-4-yl}oxy)phenyl]-2-oxo-1,2-dihydropyridine-3-carboxamide]	1.6 nM	IC50 (MER): 2 nM; IC50 (AXL): 8 nM
CN1CCN(c2ccc(-c3c(-c4cnn(C)c4)oc4ncnc(Oc5ccc(NC(=O)c6cccn(-c7ccc(F)cc7)c6=O)cc5)c34)cc2)CC1 [Compound 41, 1-(4-Fluorophenyl)-N-[4-({5-[4-(4-methylpiperazin-1-yl)phenyl]-6-(1-methyl-1H-pyrazol-4-yl)furo[2,3-d]pyrimidin-4-yl}oxy)phenyl]-2-oxo-1,2-dihydropyridine-3-carboxamide]	0.7 nM	IC50 (MER): 5.8 nM; IC50 (AXL): 15.8 nM
